# According to ChEMBL document CHEMBL3407349, “The discovery of Polo-like kinase 4 inhibitors: identification of (1R,2S).2-(3-((E).4-(((cis).2,6-dimethylmorpholino)methyl)styryl). 1H.indazol-6-yl)-5'-methoxyspiro[cyclopropane-1,3'-indolin]-2'-one (CFI-400945) as a potent, orally active antitumor agent” (J Med Chem, 2015):
# Tests used:
# [1] = AUC in athymic CD1 nude mouse at 25 mg/kg, po by LC/MS/MS analysis; type: ADME, organism-based; parameters: dose 25 mg/kg, route oral; details: plasma
# [2] = biological target: T1, Cytochrome P450 3A4 (Homo sapiens, UniProt P08684); experiment: Inhibition of CYP3A4 (unknown origin) using DBF as substrate by fluorescence assay
# [3] = biological target: Cytochrome P450 2C19 (Homo sapiens, UniProt P33261); experiment: Inhibition of CYP2C19 (unknown origin) by fluorescence assay
# [4] = Half life in rat liver microsomes
# [5] = AUC(infinity) in beagle dog at 1 mg/kg, iv; type: ADME, organism-based, Canis lupus familiaris; parameters: time infinity, dose 1 mg/kg, route intravenous; details: plasma
# [6] = Half life in beagle dog at 1 mg/kg, iv; type: ADME, organism-based, Canis lupus familiaris; parameters: dose 1 mg/kg, route intravenous; details: in vivo
# [7] = test system: HCC1954; experiment: Growth inhibition of human HCC1954 cells after 5 days by SRB assay; type: functional
# [8] = Growth inhibition of human HMEC cells after 5 days by SRB assay; type: cell-based; details: HMEC cells
# [9] = test system: MDA-MB-468; experiment: Growth inhibition of human MDA-MB-468 cells after 5 days by SRB assay; type: functional
# [10] = Cmax in athymic CD1 nude mouse at 25 mg/kg, po by LC/MS/MS analysis; type: ADME, organism-based; parameters: dose 25 mg/kg, route oral; details: in vivo
# [11] = biological target: Cytochrome P450 2D6 (Homo sapiens, UniProt P10635); experiment: Inhibition of CYP2D6 (unknown origin) by fluorescence assay; type: ADME
# [12] = biological target: Cytochrome P450 2C9 (Homo sapiens, UniProt P11712); experiment: Inhibition of CYP2C9 (unknown origin) by fluorescence assay
# [13] = AUC(infinity) in Sprague-Dawley rat at 1 mg/kg, iv; type: ADME, organism-based; parameters: time infinity, dose 1 mg/kg, route intravenous; details: plasma
# [14] = test system: MCF7; experiment: Growth inhibition of human MCF7 cells after 5 days by SRB assay; type: functional
# [15] = Oral bioavailability in Sprague-Dawley rat at 5 mg/kg; type: ADME, organism-based; details: in vivo
# [16] = biological target: T2, Cytochrome P450 1A2 (Homo sapiens, UniProt P05177); experiment: Inhibition of CYP1A2 (unknown origin) by fluorescence assay; type: ADME
# T2 sequence (P05177 whole entry): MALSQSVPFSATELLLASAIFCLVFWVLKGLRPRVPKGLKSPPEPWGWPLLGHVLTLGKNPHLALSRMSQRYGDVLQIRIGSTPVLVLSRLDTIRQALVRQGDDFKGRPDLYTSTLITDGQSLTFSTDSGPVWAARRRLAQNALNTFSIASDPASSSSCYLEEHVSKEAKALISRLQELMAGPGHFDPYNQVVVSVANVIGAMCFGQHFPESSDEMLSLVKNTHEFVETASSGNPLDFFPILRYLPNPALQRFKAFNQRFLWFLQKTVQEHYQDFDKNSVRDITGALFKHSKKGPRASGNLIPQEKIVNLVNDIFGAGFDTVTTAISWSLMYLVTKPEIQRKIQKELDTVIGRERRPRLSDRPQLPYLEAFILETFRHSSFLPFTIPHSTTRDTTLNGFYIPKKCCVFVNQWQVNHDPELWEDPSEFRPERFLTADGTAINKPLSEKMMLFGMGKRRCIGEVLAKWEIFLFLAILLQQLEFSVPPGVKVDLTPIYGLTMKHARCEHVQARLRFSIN
# [17] = Half life in dog liver microsomes
# [18] = Half life in human liver microsomes
# [19] = biological target: T1, Cytochrome P450 3A4; experiment: Inhibition of CYP3A4 (unknown origin) using BFC as substrate by fluorescence assay
# [20] = test system: MDA-MB-231; experiment: Growth inhibition of human MDA-MB-231 cells after 5 days by SRB assay; type: functional
# [21] = Half life in Sprague-Dawley rat at 1 mg/kg, iv; type: ADME, organism-based; parameters: dose 1 mg/kg, route intravenous; details: in vivo
# [22] = test system: Canis familiaris; experiment: Clearance in beagle dog at 1 mg/kg, iv; type: ADME, organism-based, Canis lupus familiaris; parameters: dose 1 mg/kg, route intravenous; details: in vivo
# [23] = AUC(infinity) in Sprague-Dawley rat at 5 mg/kg, po; type: ADME, organism-based; parameters: dose 5 mg/kg, route oral, time infinity; details: plasma
# [24] = test system: Rattus norvegicus; experiment: Clearance in Sprague-Dawley rat at 1 mg/kg, iv; type: ADME, organism-based; parameters: dose 1 mg/kg, route intravenous; details: in vivo
# [25] = Half life in mouse liver microsomes
# [26] = AUC(infinity) in beagle dog at 5 mg/kg, po; type: ADME, organism-based, Canis lupus familiaris; parameters: time infinity, dose 5 mg/kg, route oral; details: plasma
# [27] = Oral bioavailability in beagle dog at 5 mg/kg; type: ADME, organism-based, Canis lupus familiaris; details: in vivo
# [28] = biological target: T3, Serine/threonine-protein kinase PLK4 (Homo sapiens, UniProt O00444); experiment: Inhibition of PLK4 (unknown origin) by ELISA
# T3 sequence (O00444 whole entry): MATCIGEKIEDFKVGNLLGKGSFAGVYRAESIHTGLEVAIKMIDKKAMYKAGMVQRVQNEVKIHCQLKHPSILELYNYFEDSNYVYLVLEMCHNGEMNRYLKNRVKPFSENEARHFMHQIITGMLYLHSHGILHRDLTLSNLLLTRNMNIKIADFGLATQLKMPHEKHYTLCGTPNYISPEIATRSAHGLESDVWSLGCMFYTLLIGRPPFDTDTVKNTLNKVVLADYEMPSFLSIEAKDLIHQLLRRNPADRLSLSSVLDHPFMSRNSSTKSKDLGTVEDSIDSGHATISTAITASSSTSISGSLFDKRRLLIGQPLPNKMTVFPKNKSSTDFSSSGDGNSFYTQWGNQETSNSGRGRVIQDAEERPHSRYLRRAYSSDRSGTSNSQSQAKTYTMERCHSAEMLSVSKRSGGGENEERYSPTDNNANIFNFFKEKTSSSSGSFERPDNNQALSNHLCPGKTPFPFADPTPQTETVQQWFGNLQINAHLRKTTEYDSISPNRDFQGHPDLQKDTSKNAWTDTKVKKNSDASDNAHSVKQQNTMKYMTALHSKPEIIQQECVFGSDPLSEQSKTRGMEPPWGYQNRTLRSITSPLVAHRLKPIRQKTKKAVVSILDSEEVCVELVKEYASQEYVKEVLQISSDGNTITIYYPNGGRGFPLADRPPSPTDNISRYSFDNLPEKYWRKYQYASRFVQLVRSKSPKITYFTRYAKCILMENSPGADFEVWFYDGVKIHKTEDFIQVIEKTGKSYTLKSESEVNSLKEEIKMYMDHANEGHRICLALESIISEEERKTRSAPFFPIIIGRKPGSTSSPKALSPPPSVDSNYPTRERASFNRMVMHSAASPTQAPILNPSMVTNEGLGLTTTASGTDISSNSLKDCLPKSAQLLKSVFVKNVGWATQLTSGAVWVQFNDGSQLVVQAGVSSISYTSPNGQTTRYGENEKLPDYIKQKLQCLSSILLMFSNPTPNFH
# [29] = Homo sapiens, MDA-MB-468, 120 h
# [30] = Homo sapiens, MDA-MB-231, 120 h
# Sequence of Cytochrome P450 2C19 (P33261 whole entry): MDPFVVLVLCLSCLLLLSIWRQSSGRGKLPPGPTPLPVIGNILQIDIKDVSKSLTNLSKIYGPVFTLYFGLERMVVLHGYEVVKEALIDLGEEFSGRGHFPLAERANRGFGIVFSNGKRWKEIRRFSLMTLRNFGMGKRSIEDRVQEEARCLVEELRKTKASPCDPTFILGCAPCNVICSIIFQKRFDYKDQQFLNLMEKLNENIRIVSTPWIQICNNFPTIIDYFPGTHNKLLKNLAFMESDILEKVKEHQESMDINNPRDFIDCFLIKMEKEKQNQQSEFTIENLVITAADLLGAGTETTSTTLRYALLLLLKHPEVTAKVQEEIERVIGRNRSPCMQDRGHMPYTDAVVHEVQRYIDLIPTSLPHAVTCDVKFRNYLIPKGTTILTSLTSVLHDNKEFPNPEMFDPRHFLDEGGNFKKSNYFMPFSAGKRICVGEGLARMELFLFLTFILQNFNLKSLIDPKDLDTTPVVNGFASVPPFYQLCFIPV
# T1 sequence (P08684 whole entry): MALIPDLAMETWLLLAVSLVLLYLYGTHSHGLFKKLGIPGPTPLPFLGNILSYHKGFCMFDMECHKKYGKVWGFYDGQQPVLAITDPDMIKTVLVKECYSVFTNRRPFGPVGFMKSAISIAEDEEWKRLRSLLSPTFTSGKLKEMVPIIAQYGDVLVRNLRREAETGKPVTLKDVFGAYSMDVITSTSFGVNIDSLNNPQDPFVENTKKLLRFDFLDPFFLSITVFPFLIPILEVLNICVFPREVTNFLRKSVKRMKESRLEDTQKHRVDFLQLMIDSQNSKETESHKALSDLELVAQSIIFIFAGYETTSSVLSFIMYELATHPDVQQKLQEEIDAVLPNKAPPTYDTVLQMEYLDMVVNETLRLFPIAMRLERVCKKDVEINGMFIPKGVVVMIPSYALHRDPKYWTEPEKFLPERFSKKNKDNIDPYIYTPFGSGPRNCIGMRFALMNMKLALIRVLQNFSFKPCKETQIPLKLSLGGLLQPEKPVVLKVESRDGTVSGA
# Sequence of Cytochrome P450 2D6 (P10635 whole entry): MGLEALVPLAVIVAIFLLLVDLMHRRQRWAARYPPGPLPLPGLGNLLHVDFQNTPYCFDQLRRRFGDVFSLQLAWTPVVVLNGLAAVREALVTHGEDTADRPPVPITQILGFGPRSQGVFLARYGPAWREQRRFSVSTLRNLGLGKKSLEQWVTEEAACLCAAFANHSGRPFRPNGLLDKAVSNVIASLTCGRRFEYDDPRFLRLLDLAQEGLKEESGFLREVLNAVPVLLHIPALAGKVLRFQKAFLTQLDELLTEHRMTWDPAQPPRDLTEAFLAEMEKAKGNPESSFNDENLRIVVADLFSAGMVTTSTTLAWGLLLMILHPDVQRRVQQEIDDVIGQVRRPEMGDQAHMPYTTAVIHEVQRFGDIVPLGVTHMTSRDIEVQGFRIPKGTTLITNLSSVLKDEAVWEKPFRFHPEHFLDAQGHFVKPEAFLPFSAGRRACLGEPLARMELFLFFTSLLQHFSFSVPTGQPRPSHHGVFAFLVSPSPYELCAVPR
# Sequence of Cytochrome P450 2C9 (P11712 whole entry): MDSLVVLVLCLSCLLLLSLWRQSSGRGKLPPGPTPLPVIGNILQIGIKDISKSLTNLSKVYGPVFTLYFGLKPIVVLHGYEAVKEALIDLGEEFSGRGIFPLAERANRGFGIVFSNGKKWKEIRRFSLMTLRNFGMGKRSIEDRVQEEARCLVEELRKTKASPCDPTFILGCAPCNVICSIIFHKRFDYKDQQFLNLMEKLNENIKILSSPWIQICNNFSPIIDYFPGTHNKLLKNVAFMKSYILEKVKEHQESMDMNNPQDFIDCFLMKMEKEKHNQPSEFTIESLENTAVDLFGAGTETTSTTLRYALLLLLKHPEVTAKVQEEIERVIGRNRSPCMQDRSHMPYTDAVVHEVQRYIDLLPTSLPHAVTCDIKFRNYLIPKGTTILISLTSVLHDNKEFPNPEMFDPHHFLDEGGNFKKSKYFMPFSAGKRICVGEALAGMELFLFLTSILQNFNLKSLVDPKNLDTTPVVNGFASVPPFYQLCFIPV
SMILES,AUC [1],IC50 [2],IC50 [3],half-life ([4]; liver microsomes),AUC(0-inf) [5],half-life [6],"GI50 ([7]; Homo sapiens, HCC1954, 120 h)","GI50 [9, 29]",Cmax [10],inhibition (INH) [11],IC50 [12],AUC(0-inf) [13],"GI50 ([14]; Homo sapiens, MCF7, 120 h)",inhibition (INH) [16],half-life ([17]; liver microsomes),half-life ([18]; liver microsomes),IC50 [19],"GI50 [20, 30]",half-life ([25]; liver microsomes),GI50 at 120 h [8],further results
O=C1Nc2ccccc2[C@]12C[C@H]2c1ccc2c(/C=C/c3ccc(CN4CCOCC4)cc3)n[nH]c2c1,10000 ng·h/mL,2700 nM,800 nM,7.3 min,515 ng·h/mL,192 min,< 1 nM,4.2 nM,3500 ng/mL,Not Active,700 nM,312 ng·h/mL,800 nM,Not Active,4.7 min,45 min,6300 nM,5000 nM,15 min,50000 nM,bioavailability [15]: 31%; half-life [21]: 84 min; clearance [22]: 33.3 mL/min/kg; AUC(0-inf) [23]: 478 ng·h/mL; clearance [24]: 53.3 mL/min/kg; AUC(0-inf) [26]: 250 ng·h/mL; bioavailability [27]: 9.7%
CC(C)N1CCC(Oc2ccc(/C=C/c3n[nH]c4cc([C@@H]5C[C@@]56C(=O)Nc5ccccc56)ccc34)cc2)CC1,1400 ng·h/mL,1600 nM,1900 nM,> 60 min,,,7 nM,5 nM,510 ng/mL,Not Active,2400 nM,,67 nM,Not Active,> 60 min,> 60 min,> 1000 nM,1600 nM,30 min,4100 nM,IC50 [28]: 1.5 nM
Cc1ccc2c(c1)[C@]1(C[C@H]1c1ccc3c(/C=C/c4ccc(CN5CCOCC5)cc4)n[nH]c3c1)C(=O)N2,5500 ng·h/mL,,1200 nM,9 min,795 ng·h/mL,420 min,< 10 nM,13 nM,2100 ng/mL,Not Active,1000 nM,285 ng·h/mL,< 10 nM,Not Active,9.5 min,56 min,,22000 nM,13 min,9300 nM,bioavailability [15]: 28%; half-life [21]: 96 min; clearance [22]: 23.3 mL/min/kg; AUC(0-inf) [23]: 410 ng·h/mL; clearance [24]: 58.3 mL/min/kg; AUC(0-inf) [26]: 1140 ng·h/mL; bioavailability [27]: 29%

# Further lines, with some results ahead:
AUC [1],IC50 [2],IC50 [3],half-life ([4]; liver microsomes),AUC(0-inf) [5],half-life [6],"GI50 ([7]; Homo sapiens, HCC1954, 120 h)","GI50 [9, 29]",Cmax [10],inhibition (INH) [11],IC50 [12],AUC(0-inf) [13],"GI50 ([14]; Homo sapiens, MCF7, 120 h)",inhibition (INH) [16],half-life ([17]; liver microsomes),half-life ([18]; liver microsomes),IC50 [19],"GI50 [20, 30]",half-life ([25]; liver microsomes),SMILES,GI50 at 120 h [8],further results
6800 ng·h/mL,> 1000 nM,760 nM,,,,15 nM,29 nM,3400 ng/mL,Not Active,440 nM,,21 nM,Not Active,,,10000 nM,50000 nM,,COc1ccc2c(c1)[C@]1(C[C@H]1c1ccc3c(/C=C/c4ccc(CN5C[C@@H](C)O[C@@H](C)C5)cc4)n[nH]c3c1)C(=O)N2C,> 30000 nM,half-life ([4]; microsomes): 18 min; IC50 [28]: 5.7 nM; half-life ([17]; microsomes): > 60 min; half-life ([18]; microsomes): > 60 min; half-life ([25]; microsomes): 10 min
16000 ng·h/mL,11000 nM,900 nM,,,,10 nM,10 nM,3300 ng/mL,Not Active,440 nM,,50 nM,Not Active,,,450 nM,1000 nM,,COc1ccc2c(c1)[C@]1(C[C@H]1c1ccc3c(/C=C/c4ccc([C@H](C)N5CCOCC5)cc4)n[nH]c3c1)C(=O)N2C,9600 nM,half-life ([4]; microsomes): 10 min; IC50 [28]: 1.5 nM; half-life ([17]; microsomes): 6.8 min; half-life ([18]; microsomes): 53 min; half-life ([25]; microsomes): 7.2 min
9500 ng·h/mL,6400 nM,1200 nM,8.3 min,402 ng·h/mL,52.2 min,,,3500 ng/mL,Not Active,800 nM,250 ng·h/mL,,Not Active,9.4 min,41 min,2400 nM,,12 min,COc1ccc2c(c1)[C@]1(C[C@H]1c1ccc3c(/C=C/c4ccc(CN5CCOCC5)cc4)n[nH]c3c1)C(=O)N2,> 50000 nM,GI50 [7]: 250 nM; GI50 [9]: < 0.1 nM; GI50 [14]: 0.1 nM; bioavailability [15]: 22%; GI50 [20]: < 1 nM; half-life [21]: 66 min; clearance [22]: 41.7 mL/min/kg; AUC(0-inf) [23]: 272 ng·h/mL; clearance [24]: 66.7 mL/min/kg; AUC(0-inf) [26]: 1420 ng·h/mL; bioavailability [27]: 71%
